{"source": "patent US20170015555A1", "about": "“LONG-TERM PRESERVATION AND NOVEL APPLICATION OF CHLOROUS ACID AQUEOUS SOLUTION FORMULATION” (priority 2013, published 2017)", "test_in_all_cases": "Permeability of pathogenic microbes when treatment sheets were laid on vomit", "format_in_all_cases": "cell-based", "details_in_all_cases": "1000 ppm available chlorine", "key": {"[1]": {"system": "Enterohemorrhagic Escherichia coli O111", "excerpt": "(§1) 1) Chlorous acid aqueous solution formulation (see Example 1: Table 11) Treatment sheet (material: 100% cotton): (about 27×40 cm) *Impregnated at a ratio of weight of treatment sheet (g): amount of liquid (ml)=1:3 2) Imitation vomit (hereinafter, referred to as vomit) Miso solution: adjusted to pH 2 with hydrochloric acid 3) Test Microbes that were used E. coli: Escherichia coli IF03927 Staphylococcus aureus: Staphylococcus aureus IF0 12732 Thermoduric Microbes (Bacillus cereus): Bacillus cereus NBRC15305 Microbes of the genus Salmonella: Salmonella Enteritidis IF03313 Enterohemorrhagic Escherichia coli 0157: Escherichia coli 0157 Enterohemorrhagic Escherichia coli 0111: Escherichia coli 0111 Enterohemorrhagic Escherichia coli 026: Escherichia coli O26\n(§2) Permeability of pathogenic microbes into a treatment sheet when treating vomit was examined to compare effects of preventing secondary contamination. (1) Imitation vomit is spread in an area about the size of an A4 sheet. (2) 30 agent solution-containing treatment sheets were laid thereon and left standing for 10 minutes. (3) Treatment sheets were removed one at a time from the top. After diluting with saline, the sample was spread in a petri dish and cultured."}, "[2]": {"system": "Enterohemorrhagic Escherichia coli O157", "excerpt": "as §1, §2"}, "[3]": {"system": "Enterohemorrhagic Escherichia coli O26", "excerpt": "as §1, §2"}, "[4]": {"system": "Salmonella Enteritidis IF03313", "excerpt": "as §1, §2"}}, "data": [{"compound": "OCl", "note": "[Sodium Hypochlorite, sodium hypochlorite]", "values": [{"measurement": "Microbe count, 1 sheet laid on imitation vomit", "setting": "[1]; Day 0 at 25° C.", "value": "<10"}, {"measurement": "Microbe count, 2 sheets laid on imitation vomit", "setting": "[1]; Day 0 at 25° C.", "value": "<10"}, {"measurement": "Microbe count, 3 sheets laid on imitation vomit", "setting": "[1]; Day 0 at 25° C.", "value": "<10"}, {"measurement": "Microbe count, 4 sheets laid on imitation vomit", "setting": "[1]; Day 0 at 25° C.", "value": "<10"}, {"measurement": "Microbe count, 5 sheets laid on imitation vomit", "setting": "[1]; Day 0 at 25° C.", "value": "<10"}, {"measurement": "Microbe count, 6 sheets laid on imitation vomit", "setting": "[1]; Day 0 at 25° C.", "value": "<10"}, {"measurement": "Microbe count, 8 sheets laid on imitation vomit", "setting": "[1]; Day 0 at 25° C.", "value": "<10"}, {"measurement": "Microbe count, 10 sheets laid on imitation vomit", "setting": "[1]; Day 0 at 25° C.", "value": "<10"}, {"measurement": "Microbe count, 20 sheets laid on imitation vomit", "setting": "[1]; Day 0 at 25° C.", "value": "<10"}, {"measurement": "Microbe count, 30 sheets laid on imitation vomit", "setting": "[1]; Day 0 at 25° C.", "value": "<10"}, {"measurement": "Microbe count, 1 sheet laid on imitation vomit", "setting": "[1]; Day 7 at 25° C.", "value": ">10^6"}, {"measurement": "Microbe count, 2 sheets laid on imitation vomit", "setting": "[1]; Day 7 at 25° C.", "value": ">10^6"}, {"measurement": "Microbe count, 3 sheets laid on imitation vomit", "setting": "[1]; Day 7 at 25° C.", "value": ">10^6"}, {"measurement": "Microbe count, 4 sheets laid on imitation vomit", "setting": "[1]; Day 7 at 25° C.", "value": ">10^6"}, {"measurement": "Microbe count, 5 sheets laid on imitation vomit", "setting": "[1]; Day 7 at 25° C.", "value": ">10^6"}, {"measurement": "Microbe count, 6 sheets laid on imitation vomit", "setting": "[1]; Day 7 at 25° C.", "value": ">10^6"}, {"measurement": "Microbe count, 8 sheets laid on imitation vomit", "setting": "[1]; Day 7 at 25° C.", "value": ">10^6"}, {"measurement": "Microbe count, 10 sheets laid on imitation vomit", "setting": "[1]; Day 7 at 25° C.", "value": ">10^6"}, {"measurement": "Microbe count, 20 sheets laid on imitation vomit", "setting": "[1]; Day 7 at 25° C.", "value": ">10^6"}, {"measurement": "Microbe count, 30 sheets laid on imitation vomit", "setting": "[1]; Day 7 at 25° C.", "value": ">10^6"}, {"measurement": "Microbe count, 1 sheet laid on imitation vomit", "setting": "[2]; Day 0 at 25° C.", "value": "<10"}, {"measurement": "Microbe count, 2 sheets laid on imitation vomit", "setting": "[2]; Day 0 at 25° C.", "value": "<10"}, {"measurement": "Microbe count, 3 sheets laid on imitation vomit", "setting": "[2]; Day 0 at 25° C.", "value": "<10"}, {"measurement": "Microbe count, 4 sheets laid on imitation vomit", "setting": "[2]; Day 0 at 25° C.", "value": "<10"}, {"measurement": "Microbe count, 5 sheets laid on imitation vomit", "setting": "[2]; Day 0 at 25° C.", "value": "<10"}, {"measurement": "Microbe count, 6 sheets laid on imitation vomit", "setting": "[2]; Day 0 at 25° C.", "value": "<10"}, {"measurement": "Microbe count, 8 sheets laid on imitation vomit", "setting": "[2]; Day 0 at 25° C.", "value": "<10"}, {"measurement": "Microbe count, 10 sheets laid on imitation vomit", "setting": "[2]; Day 0 at 25° C.", "value": "<10"}, {"measurement": "Microbe count, 20 sheets laid on imitation vomit", "setting": "[2]; Day 0 at 25° C.", "value": "<10"}, {"measurement": "Microbe count, 30 sheets laid on imitation vomit", "setting": "[2]; Day 0 at 25° C.", "value": "<10"}, {"measurement": "Microbe count, 1 sheet laid on imitation vomit", "setting": "[2]; Day 7 at 25° C.", "value": ">10^6"}, {"measurement": "Microbe count, 2 sheets laid on imitation vomit", "setting": "[2]; Day 7 at 25° C.", "value": ">10^6"}, {"measurement": "Microbe count, 3 sheets laid on imitation vomit", "setting": "[2]; Day 7 at 25° C.", "value": ">10^6"}, {"measurement": "Microbe count, 4 sheets laid on imitation vomit", "setting": "[2]; Day 7 at 25° C.", "value": ">10^6"}, {"measurement": "Microbe count, 5 sheets laid on imitation vomit", "setting": "[2]; Day 7 at 25° C.", "value": ">10^6"}, {"measurement": "Microbe count, 6 sheets laid on imitation vomit", "setting": "[2]; Day 7 at 25° C.", "value": ">10^6"}, {"measurement": "Microbe count, 8 sheets laid on imitation vomit", "setting": "[2]; Day 7 at 25° C.", "value": "1.1 × 10^4"}, {"measurement": "Microbe count, 10 sheets laid on imitation vomit", "setting": "[2]; Day 7 at 25° C.", "value": "7.1 × 10^2"}, {"measurement": "Microbe count, 20 sheets laid on imitation vomit", "setting": "[2]; Day 7 at 25° C.", "value": "<10"}, {"measurement": "Microbe count, 30 sheets laid on imitation vomit", "setting": "[2]; Day 7 at 25° C.", "value": "<10"}, {"measurement": "Microbe count, 1 sheet laid on imitation vomit", "setting": "[3]; Day 0 at 25° C.", "value": "<10"}, {"measurement": "Microbe count, 2 sheets laid on imitation vomit", "setting": "[3]; Day 0 at 25° C.", "value": "<10"}, {"measurement": "Microbe count, 3 sheets laid on imitation vomit", "setting": "[3]; Day 0 at 25° C.", "value": "<10"}, {"measurement": "Microbe count, 4 sheets laid on imitation vomit", "setting": "[3]; Day 0 at 25° C.", "value": "<10"}, {"measurement": "Microbe count, 5 sheets laid on imitation vomit", "setting": "[3]; Day 0 at 25° C.", "value": "<10"}, {"measurement": "Microbe count, 6 sheets laid on imitation vomit", "setting": "[3]; Day 0 at 25° C.", "value": "<10"}, {"measurement": "Microbe count, 8 sheets laid on imitation vomit", "setting": "[3]; Day 0 at 25° C.", "value": "<10"}, {"measurement": "Microbe count, 10 sheets laid on imitation vomit", "setting": "[3]; Day 0 at 25° C.", "value": "<10"}, {"measurement": "Microbe count, 20 sheets laid on imitation vomit", "setting": "[3]; Day 0 at 25° C.", "value": "<10"}, {"measurement": "Microbe count, 30 sheets laid on imitation vomit", "setting": "[3]; Day 0 at 25° C.", "value": "<10"}, {"measurement": "Microbe count, 1 sheet laid on imitation vomit", "setting": "[3]; Day 7 at 25° C.", "value": ">10^6"}, {"measurement": "Microbe count, 2 sheets laid on imitation vomit", "setting": "[3]; Day 7 at 25° C.", "value": ">10^6"}, {"measurement": "Microbe count, 3 sheets laid on imitation vomit", "setting": "[3]; Day 7 at 25° C.", "value": ">10^6"}, {"measurement": "Microbe count, 4 sheets laid on imitation vomit", "setting": "[3]; Day 7 at 25° C.", "value": ">10^6"}, {"measurement": "Microbe count, 5 sheets laid on imitation vomit", "setting": "[3]; Day 7 at 25° C.", "value": ">10^6"}, {"measurement": "Microbe count, 6 sheets laid on imitation vomit", "setting": "[3]; Day 7 at 25° C.", "value": ">10^6"}, {"measurement": "Microbe count, 8 sheets laid on imitation vomit", "setting": "[3]; Day 7 at 25° C.", "value": ">10^6"}, {"measurement": "Microbe count, 10 sheets laid on imitation vomit", "setting": "[3]; Day 7 at 25° C.", "value": ">10^6"}, {"measurement": "Microbe count, 20 sheets laid on imitation vomit", "setting": "[3]; Day 7 at 25° C.", "value": ">10^6"}, {"measurement": "Microbe count, 30 sheets laid on imitation vomit", "setting": "[3]; Day 7 at 25° C.", "value": ">10^6"}, {"measurement": "Microbe count, 1 sheet laid on imitation vomit", "setting": "[4]; Day 0 at 25° C.", "value": "2.0 × 10^2"}, {"measurement": "Microbe count, 2 sheets laid on imitation vomit", "setting": "[4]; Day 0 at 25° C.", "value": "<10"}, {"measurement": "Microbe count, 3 sheets laid on imitation vomit", "setting": "[4]; Day 0 at 25° C.", "value": "<10"}, {"measurement": "Microbe count, 4 sheets laid on imitation vomit", "setting": "[4]; Day 0 at 25° C.", "value": "<10"}, {"measurement": "Microbe count, 5 sheets laid on imitation vomit", "setting": "[4]; Day 0 at 25° C.", "value": "<10"}, {"measurement": "Microbe count, 6 sheets laid on imitation vomit", "setting": "[4]; Day 0 at 25° C.", "value": "<10"}, {"measurement": "Microbe count, 8 sheets laid on imitation vomit", "setting": "[4]; Day 0 at 25° C.", "value": "<10"}, {"measurement": "Microbe count, 10 sheets laid on imitation vomit", "setting": "[4]; Day 0 at 25° C.", "value": "<10"}, {"measurement": "Microbe count, 20 sheets laid on imitation vomit", "setting": "[4]; Day 0 at 25° C.", "value": "<10"}, {"measurement": "Microbe count, 30 sheets laid on imitation vomit", "setting": "[4]; Day 0 at 25° C.", "value": "<10"}, {"measurement": "Microbe count, 1 sheet laid on imitation vomit", "setting": "[4]; Day 7 at 25° C.", "value": ">10^6"}, {"measurement": "Microbe count, 2 sheets laid on imitation vomit", "setting": "[4]; Day 7 at 25° C.", "value": ">10^6"}, {"measurement": "Microbe count, 3 sheets laid on imitation vomit", "setting": "[4]; Day 7 at 25° C.", "value": ">10^6"}, {"measurement": "Microbe count, 4 sheets laid on imitation vomit", "setting": "[4]; Day 7 at 25° C.", "value": ">10^6"}, {"measurement": "Microbe count, 5 sheets laid on imitation vomit", "setting": "[4]; Day 7 at 25° C.", "value": ">10^6"}, {"measurement": "Microbe count, 6 sheets laid on imitation vomit", "setting": "[4]; Day 7 at 25° C.", "value": ">10^6"}, {"measurement": "Microbe count, 8 sheets laid on imitation vomit", "setting": "[4]; Day 7 at 25° C.", "value": "1.1 × 10^4"}, {"measurement": "Microbe count, 10 sheets laid on imitation vomit", "setting": "[4]; Day 7 at 25° C.", "value": "7.1 × 10^2"}, {"measurement": "Microbe count, 20 sheets laid on imitation vomit", "setting": "[4]; Day 7 at 25° C.", "value": "<10"}, {"measurement": "Microbe count, 30 sheets laid on imitation vomit", "setting": "[4]; Day 7 at 25° C.", "value": "<10"}]}]}
